Experimental data reported in ChEMBL document CHEMBL1201862, “PubChem BioAssay data set” (2004).
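Cultured in 96-well plates, cells were exposed to test compound for 48 hours across five concentrations. Abbreviation: GI50, concentration required for 50% inhibition of growth.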 Active and inactive are the calls of the source. Rule as the data show it: active = GI50 up to about 1.1 µM and inactive = higher.

Assays:
Assay in all cases: NCI anticancer screen, dose series, 48 h
NCI-H226 = test system: NCI-H226
HT-29 = test system: HT-29
NCI-H23 = test system: NCI-H23
MOLT-4 = test system: MOLT-4
ACHN = test system: ACHN
HCT-116 = test system: HCT-116
K562 = test system: K562
OVCAR-5 = test system: OVCAR-5
CAKI-1 = test system: CAKI-1
MDA-MB-231 = test system: MDA-MB-231
A498 = test system: A498
LOX IMVI = test system: LOX IMVI
OVCAR-8 = test system: OVCAR-8
UACC-62 = test system: UACC-62
SK-MEL-5 = test system: SK-MEL-5
OVCAR-4 = test system: OVCAR-4
HOP-62 = test system: HOP-62
SF-268 = test system: SF-268
SN12C = test system: SN12C
786-0 = test system: 786-0
RXF 393 = test system: RXF 393
SK-MEL-28 = test system: SK-MEL-28
KM12 = test system: KM12
SNB-19 = test system: SNB-19
COLO 205 = test system: COLO 205
HOP-92 = test system: HOP-92
SR = test system: SR
MDA-MB-435 = test system: MDA-MB-435
RPMI-8226 = test system: RPMI-8226
UO-31 = test system: UO-31
SF-295 = test system: SF-295
HCT-15 = test system: HCT-15
HCC 2998 = test system: HCC 2998
SF-539 = test system: SF-539
NCI-H522 = test system: NCI-H522
PC-3 = test system: PC-3
SK-MEL-2 = test system: SK-MEL-2
SNB-75 = test system: SNB-75
OVCAR-3 = test system: OVCAR-3
M14 = test system: M14
UACC-257 = test system: UACC-257
HL-60 = test system: HL-60
NCI-H460 = test system: NCI-H460
CCRF-CEM = test system: CCRF-CEM
Malme-3M = test system: Malme-3M
Hs-578T = test system: Hs-578T
TK-10 = test system: TK-10
A549 = test system: A549
BT-549 = test system: BT-549
SW-620 = test system: SW-620
NCI/ADR-RES = test system: NCI/ADR-RES
T47D = test system: T47D
DU-145 = test system: DU-145
SK-OV-3 = test system: SK-OV-3
MCF7 = test system: MCF7
IGROV-1 = test system: IGROV-1
MDA-N = test system: MDA-N
U-251 = test system: U-251
EKVX = test system: EKVX

In the case of CN(C)c1ccc(C=C2C(=O)NC(=S)NC2=O)c2ccccc12, the GI50 (NCI-H226) was > 100 µM (inactive), the GI50 (HT-29) was > 100 µM (inactive) and the GI50 (NCI-H23) was 71.9 µM (inactive). For the same molecule, the GI50 (MOLT-4) was 29.6 µM (inactive), the GI50 (ACHN) was > 100 µM (inactive) and the GI50 (HCT-116) was > 100 µM (inactive). For the same molecule, the GI50 (K562) was 40.9 µM (inactive), the GI50 (OVCAR-5) was > 100 µM (inactive) and the GI50 (CAKI-1) was 98.9 µM (inactive). For the same molecule, the GI50 (MDA-MB-231) was > 100 µM (inactive), the GI50 (A498) was 53.7 µM (inactive) and the GI50 (LOX IMVI) was 26.9 µM (inactive). The GI50 (OVCAR-8) was 27 µM (inactive), the GI50 (UACC-62) was > 100 µM (inactive) and the GI50 (SK-MEL-5) was > 100 µM (inactive). For the same molecule, the GI50 (OVCAR-4) was > 100 µM (inactive), the GI50 (HOP-62) was > 100 µM (inactive) and the GI50 (SF-268) was 29 µM (inactive). The GI50 (SN12C) was 68.4 µM (inactive), the GI50 (786-0) was 39.8 µM (inactive) and the GI50 (RXF 393) was 26.3 µM (inactive). The GI50 (SK-MEL-28) was 77.4 µM (inactive), the GI50 (KM12) was > 100 µM (inactive) and the GI50 (SNB-19) was 61.2 µM (inactive). The GI50 (COLO 205) was > 100 µM (inactive), the GI50 (HOP-92) was 25.1 µM (inactive) and the GI50 (SR) was 33.5 µM (inactive). For the same molecule, the GI50 (MDA-MB-435) was 38.9 µM (inactive), the GI50 (RPMI-8226) was 39.4 µM (inactive) and the GI50 (UO-31) was 60.4 µM (inactive). For the same molecule, the GI50 (SF-295) was > 100 µM (inactive), the GI50 (HCT-15) was 41.7 µM and the GI50 (HCC 2998) was > 100 µM (inactive). The GI50 (SF-539) was 36 µM (inactive), the GI50 (NCI-H522) was 18.5 µM (inactive) and the GI50 (PC-3) was > 100 µM (inactive). For the same molecule, the GI50 (SK-MEL-2) was 62.8 µM (inactive), the GI50 (SNB-75) was 30.1 µM (inactive) and the GI50 (OVCAR-3) was 50.9 µM (inactive). The GI50 (M14) was > 100 µM (inactive), the GI50 (UACC-257) was > 100 µM (inactive) and the GI50 (HL-60) was 33.7 µM (inactive). For the same molecule, the GI50 (NCI-H460) was > 100 µM (inactive), the GI50 (CCRF-CEM) was 38.6 µM (inactive) and the GI50 (Malme-3M) was 49.9 µM (inactive). For the same molecule, the GI50 (Hs-578T) was 26.5 µM (inactive), the GI50 (TK-10) was > 100 µM (inactive) and the GI50 (A549) was > 100 µM (inactive). The GI50 (BT-549) was 61 µM (inactive), the GI50 (SW-620) was 46.6 µM (inactive) and the GI50 (NCI/ADR-RES) was > 100 µM (inactive). The GI50 (T47D) was > 100 µM (inactive), the GI50 (DU-145) was > 100 µM (inactive) and the GI50 (SK-OV-3) was > 100 µM (inactive). For the same molecule, the GI50 (MCF7) was 67.6 µM (inactive), the GI50 (IGROV-1) was 36.1 µM (inactive) and the GI50 (MDA-N) was 42.7 µM (inactive). For the same molecule, the GI50 (U-251) was 34.3 µM (inactive) and the GI50 (EKVX) was > 100 µM (inactive).
In the case of C=CCN1C(=O)/C(=C/c2ccc(C)cc2)N=C1SC/C=C/C, the GI50 (NCI-H226) was > 100 µM (inactive), the GI50 (HT-29) was 29.1 µM (inactive) and the GI50 (NCI-H23) was 31.1 µM (inactive). For the same molecule, the GI50 (MOLT-4) was 14.8 µM (inactive), the GI50 (ACHN) was 40.2 µM (inactive) and the GI50 (HCT-116) was 18.8 µM (inactive). The GI50 (K562) was 25.9 µM (inactive), the GI50 (OVCAR-5) was 43.6 µM (inactive) and the GI50 (CAKI-1) was > 100 µM (inactive). For the same molecule, the GI50 (MDA-MB-231) was 51.5 µM (inactive), the GI50 (A498) was 24.3 µM (inactive) and the GI50 (LOX IMVI) was 19.6 µM (inactive). The GI50 (OVCAR-8) was 30.1 µM (inactive), the GI50 (UACC-62) was 39.5 µM (inactive) and the GI50 (SK-MEL-5) was 22.7 µM (inactive). For the same molecule, the GI50 (OVCAR-4) was 41.9 µM (inactive), the GI50 (HOP-62) was > 100 µM (inactive) and the GI50 (SF-268) was 33.2 µM (inactive). For the same molecule, the GI50 (SN12C) was 28.1 µM (inactive), the GI50 (786-0) was 29.9 µM (inactive) and the GI50 (RXF 393) was 11.5 µM (inactive). The GI50 (SK-MEL-28) was 50.6 µM (inactive), the GI50 (KM12) was 27.8 µM (inactive) and the GI50 (SNB-19) was 15.5 µM (inactive). The GI50 (COLO 205) was 36.5 µM (inactive), the GI50 (HOP-92) was 22.6 µM (inactive) and the GI50 (SR) was 17.2 µM (inactive). For the same molecule, the GI50 (MDA-MB-435) was 34.4 µM (inactive), the GI50 (RPMI-8226) was 14.5 µM (inactive) and the GI50 (UO-31) was 47.3 µM (inactive). For the same molecule, the GI50 (SF-295) was 36.8 µM (inactive), the GI50 (HCT-15) was 33.4 µM and the GI50 (HCC 2998) was 41.7 µM (inactive). The GI50 (SF-539) was 77.3 µM (inactive), the GI50 (NCI-H522) was 29 µM (inactive) and the GI50 (PC-3) was 33 µM (inactive). For the same molecule, the GI50 (SK-MEL-2) was 24.8 µM (inactive), the GI50 (SNB-75) was 17.8 µM (inactive) and the GI50 (OVCAR-3) was 40.8 µM (inactive). The GI50 (M14) was 45.6 µM (inactive), the GI50 (UACC-257) was 32.7 µM (inactive) and the GI50 (HL-60) was 15.8 µM (inactive). For the same molecule, the GI50 (NCI-H460) was 40.3 µM (inactive), the GI50 (CCRF-CEM) was 26.7 µM (inactive) and the GI50 (Malme-3M) was 32.1 µM (inactive). For the same molecule, the GI50 (Hs-578T) was 21.8 µM (inactive), the GI50 (TK-10) was > 100 µM (inactive) and the GI50 (A549) was 21 µM (inactive). For the same molecule, the GI50 (BT-549) was 30.4 µM (inactive), the GI50 (SW-620) was 39.4 µM (inactive) and the GI50 (NCI/ADR-RES) was 47.3 µM (inactive). The GI50 (T47D) was 16.3 µM (inactive), the GI50 (DU-145) was 55.3 µM (inactive) and the GI50 (SK-OV-3) was > 100 µM (inactive). The GI50 (MCF7) was 29.4 µM (inactive), the GI50 (IGROV-1) was 51.6 µM (inactive) and the GI50 (MDA-N) was 22.8 µM (inactive). The GI50 (U-251) was 27.2 µM (inactive) and the GI50 (EKVX) was 27 µM (inactive).
